# Assay results reported in US6780875B2, “Quinoline-4-carboxamide derivatives as NK-3 and NK-2 receptor antagonists” (SmithKline Beecham S.p.A., priority 1998, dated 2004).
row,SMILES,melting point
1,"CC[C@H](NC(=O)c1c(CN2CCN(CCO)CC2)c(-c2ccccc2)nc2ccccc12)c1ccccc1 [Example 28, 3-[4-(2-Hydroxy-ethyl)-piperazin-1-ylmethyl]-2-phenyl-quinoline-4-carboxylic acid ((S)-1-phenyl-propyl)-amide]",142 to 144 °C
2,"C[C@H](NC(=O)c1c(CN2CCN(CCO)CC2)c(-c2ccccc2)nc2ccccc12)C1CCCCC1 [Example 29, 3-[4-(2-Hydroxy-ethyl)-piperazin-1-ylmethyl]-2-phenyl-quinoline-4-carboxylic acid ((S)-1-cyclohexyl-ethyl)-amide]",95 to 105 °C
3,"CC[C@H](NC(=O)c1c(CN2CCN(C(=O)c3ccccc3)CC2)c(-c2ccccc2)nc2ccccc12)c1ccccc1 [Example 31, 2-Phenyl-3-[4-(1-phenyl-methanoyl)-piperazin-1-ylmethyl]-quinoline-4-carboxylic acid ((S)-1-phenyl-propyl)-amide]",180 to 182 °C
4,"C[C@H](NC(=O)c1c(CN2CCC(C(N)=O)CC2)c(-c2ccccc2)nc2ccccc12)C1CCCCC1 [Example 36, 3-(4-Carbamoyl-piperidin-1-ylmethyl)-2-phenyl-quinoline-4-carboxylic acid ((S)-1-cyclohexyl-ethyl)-amide]",219 to 221 °C
5,"C[C@H](NC(=O)c1c(CN2CCC(N3CCOCC3)CC2)c(-c2ccccc2)nc2ccccc12)C1CCCCC1 [Example 42, 3-(4-Morpholin-4-yl-piperidin-1-ylmethyl)-2-phenyl-quinoline-4-carboxylic acid ((S)-1-cyclohexyl-ethyl)-amide]",135 to 137 °C
6,"C[C@H](NC(=O)c1c(CN2CCC(N3CCC(O)CC3)CC2)c(-c2ccccc2)nc2ccccc12)C1CCCCC1 [Example 43, 3-(4-Hydroxy-[1,4′]bipiperidinyl-1′-ylmethyl)-2-phenyl-quinoline-4-carboxylic acid ((S)-1-cyclohexyl-ethyl)-amide]",150 to 160 °C
7,"C[C@H](NC(=O)c1c(CN2CCN(C(=O)CN(C)C)CC2)c(-c2ccccc2)nc2ccccc12)C1CCCCC1 [Example 46, 3-[4-(2-Dimethylamino-ethanoyl)-piperazin-1-ylmethyl]-2-phenyl-quinoline-4-carboxylic acid ((S)-1-cyclohexyl-ethyl)-amide]",173 to 175 °C
8,"CCN(CC)CCC(=O)N1CCN(Cc2c(-c3ccccc3)nc3ccccc3c2C(=O)N[C@@H](C)C2CCCCC2)CC1 [Example 47, 3-[4-(3-Diethylamino-propanoyl)-piperazin-1-ylmethyl]-2-phenyl-quinoline-4-carboxylic acid ((S)-1-cyclohexyl-ethyl)-amide]",104 to 106 °C
9,"C[C@H](NC(=O)c1c(CN2CCN(C(=O)CN3CCN(C)CC3)CC2)c(-c2ccccc2)nc2ccccc12)C1CCCCC1 [Example 48, 3-{4-[2-(4-Methyl-piperazin-1-yl)-ethanoyl]-piperazin-1-ylmethyl}-2-phenyl-quinoline-4-carboxylic acid ((S)-1-cyclohexyl-ethyl)-amide]",162 to 163 °C
10,"C[C@H](NC(=O)c1c(CN2CCOCC2)c(-c2ccccc2)nc2ccccc12)C1CCCCC1 [Example 54, 3-Morpholin-4-ylmethyl-2-phenyl-quinoline-4-carboxylic acid ((S)-1-cyclohexyl-ethyl)-amide]",178 to 180 °C
11,"CC[C@H](NC(=O)c1c(CN2CCC(N)CC2)c(-c2ccccc2)nc2ccccc12)c1ccccc1 [Example 55, 3-(4-Amino-piperidin-1-ylmethyl)-2-phenyl-quinoline-4-carboxylic acid ((S)-1-phenyl-propyl)-amide]",98 to 102 °C
12,"CC[C@H](NC(=O)c1c(CN2CCN(c3ccccn3)CC2)c(-c2ccccc2)nc2ccccc12)c1ccccc1 [Example 56, 2-Phenyl-3-(4-pyridin-2-yl-piperazin-1-ylmethyl)-quinoline-4-carboxylic acid ((S)-1-phenyl-propyl)-amide]",125 to 126 °C
13,"COCCN(CCOC)Cc1c(-c2ccccc2)nc2ccccc2c1C(=O)N[C@@H](C)C1CCCCC1 [Example 58, 3-{[Bis-(2-methoxy-ethyl)-amino]-methyl}-2-phenyl-quinoline-4-carboxylic acid ((S)-1-cyclohexyl-ethyl)-amide]",114 to 115 °C
14,"C[C@H](NC(=O)c1c(CN2CCN(c3ccccn3)CC2)c(-c2ccccc2)nc2ccccc12)C1CCCCC1 [Example 59, 2-Phenyl-3-(4-pyridin-2-yl-piperazin-1-ylmethyl)-quinoline-4-carboxylic acid ((S)-1-cyclohexyl-ethyl)-amide]",152 to 154 °C
15,"CC[C@H](NC(=O)c1c(CN2C[C@@H](C)N[C@@H](C)C2)c(-c2ccccc2)nc2ccccc12)c1ccccc1 [Example 60, 3-((3R,5S)-3,5-Dimethyl-piperazin-1-ylmethyl)-2-phenyl-quinoline-4-carboxylic acid ((S)-1-phenyl-propyl)-amide]",114 to 120 °C
16,"C[C@H](NC(=O)c1c(CN2CCC3(CC2)OCCO3)c(-c2ccccc2)nc2ccccc12)C1CCCCC1 [Example 61, 3-(1,4-Dioxa-8-aza-spiro[4.5]dec-8-ylmethyl)-2-phenyl-quinoline-4-carboxylic acid ((S)-1-cyclohexyl-ethyl)-amide]",184 to 185 °C
17,"CC[C@H](NC(=O)c1c(CN2CCC(N3CCN(C)CC3)CC2)c(-c2ccccc2)nc2ccccc12)c1ccccc1 [Example 62, 3-[4-(4-Methyl-piperazin-1-yl)-piperidin-1-ylmethyl]-2-phenyl-quinoline-4-carboxylic acid ((S)-1-phenyl-propyl)-amide]",85 to 100 °C
18,"CC[C@H](NC(=O)c1c(CN2CCC3(CC2)CNC(=O)C3)c(-c2ccccc2)nc2ccccc12)c1ccccc1 [Example 63, 3-(3-Oxo-2,8-diaza-spiro[4.5]dec-8-ylmethyl)-2-phenyl-quinoline-4-carboxylic acid ((S)-1-phenyl-propyl)-amide]",129 to 131 °C
19,"CC[C@H](NC(=O)c1c(CN2CCC(N3CCCCC3)CC2)c(-c2ccccc2)nc2c(Br)c(OC)ccc12)c1ccccc1 [Example 66, 3-[1,4′]Bipiperidinyl-1′-ylmethyl-8-bromo-7-methoxy-2-phenyl-quinoline-4-carboxylic acid ((S)-1-phenyl-propyl)-amide]",156 to 160 °C
20,"C[C@H](NC(=O)c1c(CN2CCN(c3c(N4CCCC4)c(=O)c3=O)CC2)c(-c2ccccc2)nc2ccccc12)C1CCCCC1 [Example 72, 3-[4-(3,4-Dioxo-2-pyrrolidin-1-yl-cyclobut-1-enyl)-piperazin-1-ylmethyl]-2-phenyl-quinoline-4-carboxylic acid ((S)-1-cyclohexyl-ethyl)-amide]",170 to 180 °C
21,"CNC(=NC#N)N1CCN(Cc2c(-c3ccccc3)nc3ccccc3c2C(=O)N[C@@H](C)C2CCCCC2)CC1 [Example 73, 3-[4-(-1-Cyanoimino-1-methylamino-methyl)-piperazin-1-ylmethyl]-2-phenyl-quinoline-4-carboxylic acid ((S)-1-cyclohexyl-ethyl)amide]",175 to 180 °C
22,"C[C@H](NC(=O)c1c(CN2CCN(C3=NCCS3)CC2)c(-c2ccccc2)nc2ccccc12)C1CCCCC1 [Example 74, 3-[4-(4,5-Dihydro-thiazol-2-yl)-piperazin-1-ylmethyl]-2-phenyl-quinoline-4-carboxylic acid ((S)-1-cyclohexyl-ethyl)-amide]",174 to 176 °C
23,"CNC(=S)N1CCN(Cc2c(-c3ccccc3)nc3ccccc3c2C(=O)N[C@@H](C)C2CCCCC2)CC1 [Example 75, 3-(4-Methylthiocarbamoyl-piperazin-1-ylmethyl)-2-phenyl-quinoline-4-carboxylic acid ((S)-1-cyclohexyl-ethyl)-amide]",204 to 206 °C
24,"C[C@H](NC(=O)c1c(CN2CCN(C(=NC#N)N3CCCC3)CC2)c(-c2ccccc2)nc2ccccc12)C1CCCCC1 [Example 76, 3-[4-(1-Cyanoimino-1-pyrrolidin-1-yl-methyl)-piperazin-1-ylmethyl]-2-phenyl-quinoline-4-carboxylic acid ((S)-1-cyclohexyl-ethyl)-amide]",154 to 155 °C
25,"CC[C@H](NC(=O)c1c(CN2CCC(N3CCNC3=O)CC2)c(-c2ccccc2)nc2ccccc12)c1ccccc1 [Example 77, 3-[4-(2-Oxo-imidazolidin-1-yl)-piperidin-1-ylmethyl]-2-phenyl-quinoline-4-carboxylic acid ((S)-1-phenyl-propyl)-amide]",240 to 242 °C
26,"CCN(CC)CCC(=O)N1CCN(Cc2c(-c3ccccc3)nc3ccccc3c2C(=O)N[C@H](c2ccccc2)C(C)C)CC1 [Example 80, 3-[4-(3-Diethylamino-propanoyl)-piperazin-1-ylmethyl]-2-phenyl-quinoline-4-carboxylic acid ((S)-2-methyl-1-phenyl-propyl)-amide]",120 to 125 °C
27,"C[C@H](NC(=O)c1c(CN2CCN(C(=C[N+](=O)[O-])N3CCCC3)CC2)c(-c2ccccc2)nc2ccccc12)C1CCCCC1 [Example 81, 3-[4-(2-Nitro-1-pyrrolidin-1-yl-vinyl)-piperazin-1-ylmethyl]-2-phenyl-quinoline-4-carboxylic acid ((S)-1-cyclohexyl-ethyl)-amide]",164 to 165 °C
28,"C[C@H](NC(=O)c1c(CN2CCN(C(=O)CCC(=O)O)CC2)c(-c2ccccc2)nc2ccccc12)C1CCCCC1 [Example 83, 4-{4-[4-((S)-1-Cyclohexyl-ethylcarbamoyl)-2-phenyl-quinolin-3-ylmethyl]-piperazin-1-yl}-4-oxo-butyric acid]",208 to 209 °C
29,"C[C@H](NC(=O)c1c(CN2CCN(C(=NS(C)(=O)=O)N3CCCC3)CC2)c(-c2ccccc2)nc2ccccc12)C1CCCCC1 [Example 84, 3-[4-(1-Methanesulfonylimino-1-pyrrolidin-1-yl-methyl)-piperazin-1-ylmethyl]-2-phenyl-quinoline-4-carboxylic acid ((S)-1-cyclohexyl-ethyl)-amide]",130 to 140 °C
30,"CC(C)[C@H](NC(=O)c1c(CN2CCN(C(=O)CCC(=O)O)CC2)c(-c2ccccc2)nc2ccccc12)c1ccccc1 [Example 85, 4-{4-[4-((S)-2-Methyl-1-phenyl-propylcarbamoyl)-2-phenyl-quinolin-3-ylmethyl]-piperazin-1-yl}-4-oxo-butyric acid]",173 to 175 °C
